Data taken from PubChem BioAssay AID1845219 (Molecular Pharmacology Branch, DTP, NCI, 2023).

System: SYO-1 tumor spheroids, viability % test/control
Experiment: Anticancer human tumor SYO-1 cell line growth inhibition;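 further: spheroids exposed to agents for 7 days before viability read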;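 on viability, T/C: 100% = DMSO vehicle control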
Details: spheroids with HUVEC and MSC; for viability, T/C: stronger effect = lower value
Procedure, shortened: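 Single agents and combinations were tested on spheroids built from tumor cells plus HUVEC and hMSC, at half-log dilutions starting at or near clinical Cmax, else 10 microM; final DMSO 0.25% (v/v).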

Question: `CC(C)n1c(=O)n(C)c2cnc3cc(F)c(-c4ccc(OCCCN5CCCCC5)nc4)cc3c21` + Cn1nnc2c(C(N)=O)ncn2c1=O was tested. Which IC50 (curve of first compound, second compound 1 µM) did it give?
Answer: The IC50 was > 10 µM.

Question: And the IC50 (curve of first compound, second compound 3.16 µM)?
Answer: The IC50 was > 10 µM.

Question: What about the IC50 (curve of first compound, second compound 10 µM) of the same molecule?
Answer: The IC50 was 9.26 µM.

Question: What about the IC50 (curve of first compound, second compound 31.6 µM) of the same molecule?
Answer: The IC50 was 7.88 µM.

Question: What about the IC50 (curve of first compound, second compound 100 µM) of the same molecule?
Answer: The IC50 was > 10 µM.

Question: What about the viability, T/C (second compound 1 µM, first compound 0.0316 µM) of the same molecule?
Answer: The viability, T/C was 100%.

Question: What about the viability, T/C (second compound 1 µM, first compound 0.1 µM) of the same molecule?
Answer: Its viability, T/C is 101%.

Question: And the viability, T/C (second compound 1 µM, first compound 0.316 µM)?
Answer: Its viability, T/C is 103%.

Question: What about the viability, T/C (second compound 1 µM, first compound 1 µM) of the same molecule?
Answer: Its viability, T/C is 103%.

Question: And the viability, T/C (second compound 1 µM, first compound 3.16 µM)?
Answer: Its viability, T/C is 101%.

Question: What about the viability, T/C (second compound 1 µM, first compound 10 µM) of the same molecule?
Answer: The viability, T/C was 59.1%.

Question: What about the viability, T/C (second compound 3.16 µM, first compound 0.0316 µM) of the same molecule?
Answer: Its viability, T/C is 105%.

Question: And the viability, T/C (second compound 3.16 µM, first compound 0.1 µM)?
Answer: The viability, T/C was 104%.

Question: What about the viability, T/C (second compound 3.16 µM, first compound 0.316 µM) of the same molecule?
Answer: Its viability, T/C is 106%.

Question: And the viability, T/C (second compound 3.16 µM, first compound 1 µM)?
Answer: Its viability, T/C is 104%.

Question: What about the viability, T/C (second compound 3.16 µM, first compound 3.16 µM) of the same molecule?
Answer: Its viability, T/C is 103%.

Question: What about the viability, T/C (second compound 3.16 µM, first compound 10 µM) of the same molecule?
Answer: The viability, T/C was 52%.

Question: What about the viability, T/C (second compound 10 µM, first compound 0.0316 µM) of the same molecule?
Answer: The viability, T/C was 105%.

Question: And the viability, T/C (second compound 10 µM, first compound 0.1 µM)?
Answer: Its viability, T/C is 100%.

Question: And the viability, T/C (second compound 10 µM, first compound 0.316 µM)?
Answer: The viability, T/C was 103%.

Question: And the viability, T/C (second compound 10 µM, first compound 1 µM)?
Answer: The viability, T/C was 108%.

Question: What about the viability, T/C (second compound 10 µM, first compound 3.16 µM) of the same molecule?
Answer: Its viability, T/C is 102%.

Question: And the viability, T/C (second compound 10 µM, first compound 10 µM)?
Answer: The viability, T/C was 46.3%.

Question: And the viability, T/C (second compound 31.6 µM, first compound 0.0316 µM)?
Answer: Its viability, T/C is 106%.

Question: What about the viability, T/C (second compound 31.6 µM, first compound 0.1 µM) of the same molecule?
Answer: The viability, T/C was 113%.

Question: What about the viability, T/C (second compound 31.6 µM, first compound 0.316 µM) of the same molecule?
Answer: The viability, T/C was 106%.

Question: And the viability, T/C (second compound 31.6 µM, first compound 1 µM)?
Answer: Its viability, T/C is 115%.

Question: And the viability, T/C (second compound 31.6 µM, first compound 3.16 µM)?
Answer: The viability, T/C was 104%.

Question: And the viability, T/C (second compound 31.6 µM, first compound 10 µM)?
Answer: The viability, T/C was 35.8%.

Question: And the viability, T/C (second compound 100 µM, first compound 0.0316 µM)?
Answer: The viability, T/C was 108%.

Question: What about the viability, T/C (second compound 100 µM, first compound 0.1 µM) of the same molecule?
Answer: The viability, T/C was 112%.

Question: What about the viability, T/C (second compound 100 µM, first compound 0.316 µM) of the same molecule?
Answer: The viability, T/C was 106%.

Question: And the viability, T/C (second compound 100 µM, first compound 1 µM)?
Answer: The viability, T/C was 96.2%.

Question: What about the viability, T/C (second compound 100 µM, first compound 3.16 µM) of the same molecule?
Answer: Its viability, T/C is 103%.

Question: And the viability, T/C (second compound 100 µM, first compound 10 µM)?
Answer: The viability, T/C was 73%.

Question: For `CC[C@@]1(O)C(=O)OCc2c1cc1n(c2=O)Cc2cc3c(CN(C)C)c(O)ccc3nc2-1`, which viability, T/C (compound 0.003 µM) is on record?
Answer: The viability, T/C was 92.2% [middle of 10 runs].

Question: And the viability, T/C (compound 0.03 µM)?
Answer: The viability, T/C was 1.67% [middle of 10 runs].

Question: And the viability, T/C (compound 0.0949 µM)?
Answer: Its viability, T/C is 1.54% [middle of 10 runs].

Question: And the viability, T/C (compound 0.3 µM)?
Answer: Its viability, T/C is 1.88% [middle of 10 runs].

Question: What about the IC50 (compound alone, run of 12/02/2019) of the same molecule?
Answer: Its IC50 is 5.58 nM [middle of 5 runs].

Question: What about the IC50 (compound alone, run of 12/12/2019) of the same molecule?
Answer: The IC50 was 6.49 nM [middle of 5 runs].

Question: What does the source list for `COc1cc(C)[nH]c(=O)c1CN1CCc2c(Cl)cc(C(OC)C3COC3)c(Cl)c2C1=O` (stereo unspecified) + COc1cc2c(cc1O)CCNC21CSC2c3c(OC(C)=O)c(C)c4c(c3C(COC1=O)N1C(O)C3Cc5cc(C)c(OC)c(O)c5C(C21)N3C)OCO4?
Answer: IC50 (curve of first compound, second compound 30 pM): 1.49 µM; IC50 (curve of first compound, second compound 94.9 pM): 0.198 µM; IC50 (curve of first compound, second compound 0.0003 µM): < 0.0316 µM; IC50 (curve of first compound, second compound 0.000949 µM): < 0.0316 µM; IC50 (curve of first compound, second compound 0.003 µM): < 0.0316 µM; viability, T/C (second compound 30 pM, first compound 0.0316 µM): 104%; viability, T/C (second compound 30 pM, first compound 0.1 µM): 104%; viability, T/C (second compound 30 pM, first compound 0.316 µM): 79.3%; viability, T/C (second compound 30 pM, first compound 1 µM): 55.3%; viability, T/C (second compound 30 pM, first compound 3.16 µM): 42.5%; viability, T/C (second compound 30 pM, first compound 10 µM): 40.5%; viability, T/C (second compound 94.9 pM, first compound 0.0316 µM): 94%; viability, T/C (second compound 94.9 pM, first compound 0.1 µM): 65.8%; viability, T/C (second compound 94.9 pM, first compound 0.316 µM): 39.9%; viability, T/C (second compound 94.9 pM, first compound 1 µM): 20.9%; viability, T/C (second compound 94.9 pM, first compound 3.16 µM): 16.5%; viability, T/C (second compound 94.9 pM, first compound 10 µM): 11.5%; viability, T/C (second compound 0.0003 µM, first compound 0.0316 µM): 6.74%; viability, T/C (second compound 0.0003 µM, first compound 0.1 µM): 4%; viability, T/C (second compound 0.0003 µM, first compound 0.316 µM): 3.76%; viability, T/C (second compound 0.0003 µM, first compound 1 µM): 3.14%; viability, T/C (second compound 0.0003 µM, first compound 3.16 µM): 2.73%; viability, T/C (second compound 0.0003 µM, first compound 10 µM): 2.74%; viability, T/C (second compound 0.000949 µM, first compound 0.0316 µM): 0.89%; viability, T/C (second compound 0.000949 µM, first compound 0.1 µM): 0.96%; viability, T/C (second compound 0.000949 µM, first compound 0.316 µM): 0.72%; viability, T/C (second compound 0.000949 µM, first compound 1 µM): 0.67%; viability, T/C (second compound 0.000949 µM, first compound 3.16 µM): 0.86%; viability, T/C (second compound 0.000949 µM, first compound 10 µM): 0.76%; viability, T/C (second compound 0.003 µM, first compound 0.0316 µM): 0.11%; viability, T/C (second compound 0.003 µM, first compound 0.1 µM): 0.09%; viability, T/C (second compound 0.003 µM, first compound 0.316 µM): 0.1%; viability, T/C (second compound 0.003 µM, first compound 1 µM): 0.11%; viability, T/C (second compound 0.003 µM, first compound 3.16 µM): 0.11%; viability, T/C (second compound 0.003 µM, first compound 10 µM): 0.17%
